Assay results from US5068247A, “2-aminopentanoic acid compounds and their use as immunosuppressants” (priority 1989, dated 1991).
In brackets after ≈: the same amount, converted by molar mass. Like-named read-outs stand apart in the source and are kept apart here.

Legend:
K562 = assay: cytotoxicity to cultured tumor cell line K562
Procedure: (§1) Cytotoxicity to various human tumor cell lines was examined as follows:
(§2) Cells of human cell lines, K562, MOLT4, U937 and HL60 were respectively suspended to the concentration of 4×10^5 cells/ml in the RPMI1640 culture medium supplemented with 20% FCS. Fifty μl of each suspension was added to each well of a 96-well microtest plate to which 50 μl of the test solution had been added. After culturing the suspension at 37° C. in an atmosphere of 5% carbon dioxide for 72 hours, the absorbancy at 570 nm was measured in the same way as with the colorimetry using MTT in Experiment Example 1, and the percent suppression was calculated by the following formula, which was used as an index of cytotoxicity.

[1] = cytotoxicity to cultured tumor cell line K562; settings: human, k562 cells, Suppression
Procedure: as §1, §2

[2] = tested on: IL-3 production in mouse allogenic MLC; assay: suppression of IL-3 production in mouse allogenic MLC; format: cell-based
Procedure: Mouse allogenic MLC was carried out as follows:
After termination of culture, the supernatant was collected and used as the supernatant of mouse allogenic MLC.

[3] = cytotoxicity to cultured tumor cell line HL60; settings: human, hl60 cells, Suppression
Procedure: as §1, §2

HL60 = assay: cytotoxicity to cultured tumor cell line HL60
[4] = tested on: allo-specific cytotoxic antibody in serum of EL4-immunized BALB/c mice; assay: suppression of allo-specific cytotoxic antibody production induced by allogenic cell immunization of mouse; format: in vivo
Procedure: Male 5- to 7-week-old BALB/c mice were immunized with leukemia cell EL4 derived from C57BL/6 mice (10^7 cells/mouse, intraperitoneal administration) in the same way as in Experiment Example 9, and the […] Nine to ten days after immunization, a serum was collected from the mice. Fifty μl of the two-fold serial dilution of the serum, 50 μl of a guinea pig complement and EL4 cell suspension labelled with ^51 Cr as the target cell (5×10^4 cells/ml, 100 μl) were together added to a 96-well microtest plate. After incubation at 37° C. for 1 hour, the amount of ^51 Cr released in the supernatant was measured, and the complement-dependent cytotoxicity was calculated by the following formula. [formula]
The value of allo-specific cytotoxic antibody determined as above was expressed by the titer calculated on the basis of the concentration at which the releasing amount of ^51 Cr was 50% of that of ^51 Cr-labelled target cells treated with 0.1 N HCl.

[5] = tested on: mouse allogenic MLR (BALB/c mouse spleen cells stimulated with C57BL/6 mouse spleen cells); assay: mouse allogenic mixed lymphocyte reaction (MLR), 3H-thymidine uptake; format: cell-based
Outline: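 BALB/c responder spleen cells were mixed in equal amounts with mitomycin C-treated (40 μg/ml, 60 min, 37 °C) C57BL/6 stimulator spleen cells, each at 10^7 cells/ml in RPMI1640 with 20% FCS and 10^-4 M 2-mercaptoethanol. Blastogenesis was read as 3H-thymidine uptake (18.5 KBq/well, 4 h) after culture and expressed as % suppression. Compounds were dissolved in methanol, then diluted in medium.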

[6] = cytotoxicity to cultured tumor cell line U937; format: cell-based, human; settings: human, u937 cells; 0.1 μg/ml; read-out: Suppression
Procedure: as §1, §2

U937 = assay: cytotoxicity to cultured tumor cell line U937; format: cell-based, human
Procedure: as §1, §2

MOLT4 = assay: cytotoxicity to cultured tumor cell line MOLT4; format: cell-based, human
Procedure: as §1, §2

[7] = cytotoxicity to cultured tumor cell line MOLT4; format: cell-based, human; settings: human, molt4 cells, read-out: Suppression
Procedure: as §1, §2

[8] = 0.003 mg/kg/day po × 10, Table 10D
[9] = 0.01 mg/kg/day po × 5, Table 10C
[10] = 0.01 mg/kg/day po × 10, Table 10D
[11] = 0.03 mg/kg/day po × 5, Table 10C
[12] = 0.03 mg/kg/day po × 10, Table 10D
[13] = 0.1 mg/kg/day po × 5, Table 10C
[14] = 0.1 mg/kg/day po × 10, Table 10D
[15] = 0.3 mg/kg/day po × 5, Table 10C
[16] = 0.3 mg/kg/day po × 10, Table 10D

**Q.** What does the source list for `CCCCCCCCCCCCC/C=C/C[C@@H](O)[C@H](O)[C@@](N)(CO)C(=O)O` [Example 5]?
**A.** Absorbancy (K562; 0.1 μg/ml): 1.111 ± 0.037; Absorbancy (K562; 1 μg/ml): 1.090 ± 0.044; Absorbancy (K562; 10 μg/ml): 1.083 ± 0.033; cytotoxicity at 72 h ([1]; 0.1 μg/ml): 2.2%; cytotoxicity at 72 h ([1]; 1 μg/ml): 4%; cytotoxicity at 72 h ([1]; 10 μg/ml): 4.7%; IL-3 activity ([2]; 0.0001 μg/ml): 32.7 U/ml; IL-3 activity ([2]; 0.001 μg/ml): 19.2 U/ml; IL-3 activity ([2]; 0.01 μg/ml): 11.5 U/ml; IL-3 activity ([2]; 0.1 μg/ml): 7.9 U/ml; IL-3 activity ([2]; 1 μg/ml): 7.9 U/ml; inhibition at 0.0001 µg/mL ([2]; Mus musculus, 48 h, 0.0001 μg/ml): 42.1%; inhibition at 0.001 µg/mL ([2]; Mus musculus, 48 h, 0.001 μg/ml): 76.5%; inhibition at 0.01 µg/mL ([2]; Mus musculus, 48 h, 0.01 μg/ml): 96.2%; inhibition at 0.1 µg/mL ([2]; Mus musculus, 48 h, 0.1 μg/ml): 100%; inhibition at 1 µg/mL ([2]; Mus musculus, 48 h, 1 μg/ml): 100%; cytotoxicity at 72 h ([3]; 0.1 μg/ml): 0%; cytotoxicity at 72 h ([3]; 1 μg/ml): 5%; cytotoxicity at 72 h ([3]; 10 μg/ml): 19.4%; Absorbancy (HL60; 0.1 μg/ml): 1.505 ± 0.035; Absorbancy (HL60; 1 μg/ml): 1.415 ± 0.010; Absorbancy (HL60; 10 μg/ml): 1.201 ± 0.061; Allogenic cell-specific antibody in serum, suppression [4, 8]: 28.3%; Allogenic cell-specific antibody in serum, titer [4, 8]: 147 ± 43; Allogenic cell-specific antibody in serum, suppression [4, 9]: 0%; Allogenic cell-specific antibody in serum, titer [4, 9]: 318 ± 75; Allogenic cell-specific antibody in serum, suppression [4, 10]: 45.4%; Allogenic cell-specific antibody in serum, titer [4, 10]: 112 ± 66; Allogenic cell-specific antibody in serum, suppression [4, 11]: 37.8%; Allogenic cell-specific antibody in serum, titer [4, 11]: 186 ± 100; Allogenic cell-specific antibody in serum, suppression [4, 12]: 40.0%; Allogenic cell-specific antibody in serum, titer [4, 12]: 123 ± 43; Allogenic cell-specific antibody in serum, suppression [4, 13]: 61.5%; Allogenic cell-specific antibody in serum, titer [4, 13]: 115 ± 19; Allogenic cell-specific antibody in serum, suppression [4, 14]: 71.2%; Allogenic cell-specific antibody in serum, titer [4, 14]: 59 ± 38; Allogenic cell-specific antibody in serum, suppression [4, 15]: 69.6%; Allogenic cell-specific antibody in serum, titer [4, 15]: 91 ± 67; Allogenic cell-specific antibody in serum, suppression [4, 16]: 76.1%; Allogenic cell-specific antibody in serum, titer [4, 16]: 49 ± 26; Allogenic cell-specific antibody in serum, suppression ([4]; 1 mg/kg/day po × 5, Table 10C): 82.5%; Allogenic cell-specific antibody in serum, titer ([4]; 1 mg/kg/day po × 5, Table 10C): 52 ± 27; Allogenic cell-specific antibody in serum, suppression ([4]; 1 mg/kg/day po × 10, Table 10D): 76.6%; Allogenic cell-specific antibody in serum, titer ([4]; 1 mg/kg/day po × 10, Table 10D): 48 ± 37; allo-specific cytotoxic antibody production in serum (in words) ([4]; intraperitoneal or oral, Tables 10A to 10D): strongly suppresses allo-specific cytotoxic antibody production in serum; 3H-thymidine uptake ([5]; 0.0001 μg/ml, Table 1A): 15747 cpm; 3H-thymidine uptake ([5]; 0.0001 μg/ml, Table 1B): 4485 ± 812 cpm; Suppression ([5]; 0.0001 μg/ml, Table 1B): 18.1%; 3H-thymidine uptake ([5]; 0.001 μg/ml, Table 1A): 2384 cpm; 3H-thymidine uptake ([5]; 0.001 μg/ml, Table 1B): 6101 ± 356 cpm; Suppression ([5]; 0.001 μg/ml, Table 1B): 0%; 3H-thymidine uptake ([5]; 0.01 μg/ml, Table 1A): 1421 cpm; 3H-thymidine uptake ([5]; 0.01 μg/ml, Table 1B): 1013 ± 314 cpm; 3H-thymidine uptake ([5]; 0.1 μg/ml, Table 1A): 1091 cpm; 3H-thymidine uptake ([5]; 0.1 μg/ml, Table 1B): 359 ± 54 cpm; 3H-thymidine uptake ([5]; 1 μg/ml, Table 1A): 1163 cpm; 3H-thymidine uptake ([5]; 1 μg/ml, Table 1B): 52 ± 24 cpm; inhibition at 0.0001 µg/mL ([5]; Mus musculus, Lymphocyte, 0.0001 μg/ml, Table 1A, read-out: Suppression): 16%; inhibition at 0.001 µg/mL ([5]; Mus musculus, Lymphocyte, 0.001 μg/ml, Table 1A, read-out: Suppression): 95.5%; inhibition at 0.01 µg/mL ([5]; Mus musculus, Lymphocyte, 0.01 μg/ml, Table 1A, read-out: Suppression): 100%; inhibition at 0.01 µg/mL ([5]; Mus musculus, Lymphocyte, 0.01 μg/ml, Table 1B, read-out: Suppression): 92.2%; inhibition at 0.1 µg/mL ([5]; Mus musculus, Lymphocyte, 0.1 μg/ml, Table 1A, read-out: Suppression): 100%; inhibition at 0.1 µg/mL ([5]; Mus musculus, Lymphocyte, 0.1 μg/ml, Table 1B, read-out: Suppression): 100%; inhibition at 1 µg/mL ([5]; Mus musculus, Lymphocyte, 1 μg/ml, Table 1A, read-out: Suppression): 100%; inhibition at 1 µg/mL ([5]; Mus musculus, Lymphocyte, 1 μg/ml, Table 1B, read-out: Suppression): 100%; IC50 ([5]; Mus musculus, Lymphocyte, read-out: 50%-inhibition concentration (IC50) in mouse allogenic MLR): 0.25 ng/mL (≈ 0.645 nM); cytotoxicity at 72 h [6]: 0%; Absorbancy (U937; 0.1 μg/ml): 0.695 ± 0.032; Absorbancy (U937; 1 μg/ml): 0.699 ± 0.044; Absorbancy (U937; 10 μg/ml): 0.684 ± 0.038; Absorbancy (MOLT4; 0.1 μg/ml): 1.031 ± 0.035; Absorbancy (MOLT4; 1 μg/ml): 1.013 ± 0.013; Absorbancy (MOLT4; 10 μg/ml): 0.967 ± 0.006; cytotoxicity at 72 h ([7]; 0.1 μg/ml): 10.7%; cytotoxicity at 72 h ([7]; 1 μg/ml): 12.2%; cytotoxicity at 72 h ([7]; 10 μg/ml): 16.2%
